Measured values as given in patent EP3939578A1, “COMPOUNDS FOR TREATMENT OR PREVENTION OF AN INFECTION RESULTING FROM A CORONAVIRUS AND/OR A CORONAVIRUS-INDUCED DISEASE” (Novaremed Ltd., priority 2020, dated 2022).
Entries after “also recorded” stand apart in the source; their conditions may differ.

What was measured:
[1] = Gravimetric Vapour Sorption (GVS); assay type: physicochemical
Protocol: Approximately 10 mg of sample was placed into a wire-mesh vapour sorption balance pan and loaded into an 'IgaSorp' vapour sorption balance (Hiden Analytical Instruments). The sample was then dried by maintaining a 0% humidity environment until no further weight change was recorded. Subsequently, the sample was subjected to a ramping profile from 0 - 90 % RH at 10 % RH increments, maintaining the sample at each step until equilibration had been attained (99% step completion). Upon reaching equilibration, the % RH within the apparatus was ramped to the next step and the equilibration procedure repeated. After completion of the sorption cycle, the sample was then dried using the same procedure. The weight change during the sorption/desorption cycles were then monitored, allowing for the hygroscopic nature of the sample to be determined.

[2] = Dog bioavailability tests of polymorphs 1 and 2; assay type: in vivo; settings: compared with polymorph 1
Source text: The bioavailability of polymorphs 1 and 2 has also been tested and made available in PCT/EP2020/051528 as Example 3 and is incorporated herein by reference.

Row | SMILES | rapid moisture uptake between 70% and 80% RH ([1]; GVS, between 70% and 80% RH, hysteresis between adsorption and desorption cycles) [%] | weight increase in second adsorption cycle ([1]; GVS, second adsorption cycle, at an RH of 40%, different form arising after the first cycle) [%] | weight increase to 70% RH ([1]; GVS, to 70% RH) [%] | overall weight loss by the end of the two adsorption/desorption cycles ([1]; GVS, after two adsorption/desorption cycles, sharp weight loss at 90% RH) [%] | weight gain to 80% RH ([1]; GVS, to 80% RH) [%] | change of polymorphic form (XRPD) after GVS ([1]; XRPD after two adsorption/desorption cycles) | bioavailability [2]
1 | C[C@H](O)COC[C@H](Cc1ccc(O)cc1)NC(=O)CCc1ccccc1 [polymorph 1, (S,S)-2-N(3-O-(propan-2-ol)-1-propyl-4-hydroxybenzene)-3-phenylpropylamide] | 5.6 | > 2 | ~1.3 |  |  |  | 
2 | C[C@H](O)COC[C@H](Cc1ccc(O)cc1)NC(=O)CCc1ccccc1 [polymorph 2, (S,S)-2-N(3-O-(propan-2-ol)-1-propyl-4-hydroxybenzene)-3-phenylpropylamide] |  |  |  | ~1 | 0.6 | no change of polymorphic form | higher than for polymorph 1; also recorded: better bioavailability as compared to polymorph 1; also recorded: exceptionally high
